Legend:
[1] = target: VMAT2 (human platelet homogenate) (Homo sapiens (Human), UniProt Q05940); assay: Human VMAT2 Ki, slightly modified competition binding procedure (Table 11); settings: 10 nM 3H-dihydrotetrabenazine;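 note: competition binding with 90 min incubation at 25 °C, after which filter-retained radioligand was measured by scintillation counting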
Procedure: Following incubation at 25° C. for 90 minutes, bound radioligand was collected by rapid filtration onto GF/B glass fiber filters using a Unifilter-96 Harvester (PerkinElmer). Filter plates were pre-treated with 0.1% polyethylenimine and allowed to dry overnight, and following harvesting the filter plates were washed with 800 d VMAT2 binding buffer. Bound radioligand was quantified by scintillation counting using a Topcount NXT (PerkinElmer).

[2] = In vitro human intestinal S9 hydrolysis assay (formation of compound 1-1); settings: human intestinal S9, 1 uM, 37° C., up to 60 minutes
Procedure: Compounds (1 uM) were incubated with pooled intestinal S9 subcellular preparations (0.5 mg/mL total protein) from SD rats and humans without the addition of protease inhibitor phenylmethylsulfonylflouride. Incubations were carried out in a potassium phosphate buffer (50 mM). All concentrations were relative to the final incubation volume of 125 uL. Incubations were conducted at 37° C. for 0, 5, 10, 20, 40 and 60 minutes in a water bath and terminated by rapid mixing with 150 uL of ice-cold acetonitrile containing 1% formic acid. Internal standard was added and proteins were precipitated and removed by centrifugation prior to LC/MS analysis.

Sequence of VMAT2 (human platelet homogenate) (Q05940 whole entry): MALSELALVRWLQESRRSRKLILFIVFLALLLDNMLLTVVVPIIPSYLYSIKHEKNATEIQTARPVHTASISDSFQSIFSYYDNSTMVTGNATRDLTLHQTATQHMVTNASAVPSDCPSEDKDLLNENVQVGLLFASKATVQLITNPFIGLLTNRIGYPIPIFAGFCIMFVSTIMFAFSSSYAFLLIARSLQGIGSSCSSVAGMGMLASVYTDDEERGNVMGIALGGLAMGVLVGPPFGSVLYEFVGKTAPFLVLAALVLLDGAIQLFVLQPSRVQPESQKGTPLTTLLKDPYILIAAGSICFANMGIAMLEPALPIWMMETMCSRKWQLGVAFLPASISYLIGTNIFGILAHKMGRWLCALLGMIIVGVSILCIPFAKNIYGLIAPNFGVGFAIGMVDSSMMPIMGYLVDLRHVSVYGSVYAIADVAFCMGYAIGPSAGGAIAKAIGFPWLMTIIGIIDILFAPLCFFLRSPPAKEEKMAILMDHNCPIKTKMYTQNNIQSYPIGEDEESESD

Row | Structure (SMILES) | Ki [1] [nM] | S9 Assay (ability to form compound 1-1) [2]
1 | COc1cc2c(cc1OC)[C@H]1C[C@@H](COC(=O)C3CCCCC3C(=O)O)[C@H](CC(C)C)CN1CC2 (stereo partly drawn) [Compound 3-6, 2-({[(2R,3S,11bR)-9,10-dimethoxy-3-(2-methylpropyl)-1H,2H,3H,4H,6H,7H,11bH-pyrido[2,1-a]isoquinolin-2-yl]methoxy}carbonyl)cyclohexane-1-carboxylic acid] | 10 to 500 | ++
2 | COc1cc2c(cc1OC)[C@H]1C[C@@H](COC(=O)CC3(CC(=O)O)CCCC3)[C@H](CC(C)C)CN1CC2 [Compound 3-9] | 10 to 500 | ++
3 | COc1cc2c(cc1OC)[C@H]1C[C@@H](COC(=O)C3CCNCC3)[C@H](CC(C)C)CN1CC2 [Compound 4-1, [(2R,3S,11bR)-9,10-dimethoxy-3-(2-methylpropyl)-1H,2H,3H,4H,6H,7H,11bH-pyrido[2,1-a]isoquinolin-2-yl]methyl piperidine-4-carboxylate] | < 10 | ++
4 | COc1cc2c(cc1OC)[C@H]1C[C@@H](COC(=O)[C@H]3CCNC3)[C@H](CC(C)C)CN1CC2 [Compound 4-7, [(2R,3S,11bR)-9,10-dimethoxy-3-(2-methylpropyl)-1H,2H,3H,4H,6H,7H,11bH-pyrido[2,1-a]isoquinolin-2-yl]methyl (3S)-pyrrolidine-3-carboxylate] | < 10 | ++
5 | COc1cc2c(cc1OC)[C@H]1C[C@@H](COC(=O)C3CCNC3)[C@H](CC(C)C)CN1CC2 (stereo partly drawn) [Compound 4-8, [(2R,3S,11bR)-9,10-dimethoxy-3-(2-methylpropyl)-1H,2H,3H,4H,6H,7H,11bH-pyrido[2,1-a]isoquinolin-2-yl]methyl pyrrolidine-3-carboxylate] | < 10 | ++
6 | COc1cc2c(cc1OC)[C@H]1C[C@@H](COC(=O)CC3CCCNC3)[C@H](CC(C)C)CN1CC2 (stereo partly drawn) [Compound 4-10, [(2R,3S,11bR)-9,10-dimethoxy-3-(2-methylpropyl)-1H,2H,3H,4H,6H,7H,11bH-pyrido[2,1-a]isoquinolin-2-yl]methyl 2-(piperidin-3-yl)acetate] | < 10 | ++
7 | COc1cc2c(cc1OC)[C@H]1C[C@@H](COC(=O)[C@H]3CCCNC3)[C@H](CC(C)C)CN1CC2 [Compound 4-13, [(2R,3S,11bR)-9,10-dimethoxy-3-(2-methylpropyl)-1H,2H,3H,4H,6H,7H,11bH-pyrido[2,1-a]isoquinolin-2-yl]methyl (3S)-piperidine-3-carboxylate] | < 10 | +++
8 | COc1cc2c(cc1OC)[C@H]1C[C@@H](COC(=O)C3CCNCC3C)[C@H](CC(C)C)CN1CC2 (stereo partly drawn) [Compound 4-15, [(2R,3S,11bR)-9,10-dimethoxy-3-(2-methylpropyl)-1H,2H,3H,4H,6H,7H,11bH-pyrido[2,1-a]isoquinolin-2-yl]methyl 3-methylpiperidine-4-carboxylate] | < 10 | +
9 | COc1cc2c(cc1OC)[C@H]1C[C@@H](COC(=O)CC3CCNC3)[C@H](CC(C)C)CN1CC2 (stereo partly drawn) [Compound 4-16, [(2R,3S,11bR)-9,10-dimethoxy-3-(2-methylpropyl)-1H,2H,3H,4H,6H,7H,11bH-pyrido[2,1-a]isoquinolin-2-yl]methyl 2-(pyrrolidin-3-yl)acetate] | < 10 | +
10 | COc1cc2c(cc1OC)[C@H]1C[C@@H](COC(=O)C3(OC)CCNCC3)[C@H](CC(C)C)CN1CC2 [Compound 4-22, [(2R,3S,11bR)-9,10-dimethoxy-3-(2-methylpropyl)-1H,2H,3H,4H,6H,7H,11bH-pyrido[2,1-a]isoquinolin-2-yl]methyl 4-methoxypiperidine-4-carboxylate] | < 10 | ++
11 | COc1cc2c(cc1OC)[C@H]1C[C@@H](COC(=O)[C@@H]3CCNC3)[C@H](CC(C)C)CN1CC2 [Compound 4-26, [(2R,3S,11bR)-9,10-dimethoxy-3-(2-methylpropyl)-1H,2H,3H,4H,6H,7H,11bH-pyrido[2,1-a]isoquinolin-2-yl]methyl (3R)-pyrrolidine-3-carboxylate] | < 10 | ++
12 | COc1cc2c(cc1OC)[C@H]1C[C@@H](COC(=O)CC3CCCN3)[C@H](CC(C)C)CN1CC2 (stereo partly drawn) [Compound 4-28, [(2R,3S,11bR)-9,10-dimethoxy-3-(2-methylpropyl)-1H,2H,3H,4H,6H,7H,11bH-pyrido[2,1-a]isoquinolin-2-yl]methyl 2-(pyrrolidin-2-yl)acetate] | < 10 | ++
13 | COc1cc2c(cc1OC)[C@H]1C[C@@H](COC(=O)[C@@H]3CCCNC3)[C@H](CC(C)C)CN1CC2 [Compound 4-29, [(2R,3S,11bR)-9,10-dimethoxy-3-(2-methylpropyl)-1H,2H,3H,4H,6H,7H,11bH-pyrido[2,1-a]isoquinolin-2-yl]methyl (3R)-piperidine-3-carboxylate] | < 10 | +++
14 | COc1cc2c(cc1OC)[C@H]1C[C@@H](COC(=O)C[C@@H]3CCCN3)[C@H](CC(C)C)CN1CC2 [Compound 4-36] | < 10 | +++
15 | COc1cc2c(cc1OC)[C@H]1C[C@@H](COC(=O)C[C@H]3CCNC3)[C@H](CC(C)C)CN1CC2 [Compound 4-38, [(2R,3S,11bR)-9,10-dimethoxy-3-(2-methylpropyl)-1H,2H,3H,4H,6H,7H,11bH-pyrido[2,1-a]isoquinolin-2-yl]methyl 2-[(3R)-pyrrolidin-3-yl]acetate] | < 10 | +
16 | COc1cc2c(cc1OC)[C@H]1C[C@@H](COC(=O)N3CCOC(CN(C)C)C3)[C@H](CC(C)C)CN1CC2 (stereo partly drawn) [Compound 5-4, [(2R,3S,11bR)-9,10-dimethoxy-3-(2-methylpropyl)-1H,2H,3H,4H,6H,7H,11bH-pyrido[2,1-a]isoquinolin-2-yl]methyl 2-[(dimethylamino)methyl]morpholine-4-carboxylate] | < 10 | +

Now from value to compound:

Row | Ki [1] [nM] | S9 Assay (ability to form compound 1-1) [2] | Structure (SMILES)
17 | 10 to 500 | +++ | COc1cc2c(cc1OC)[C@H]1C[C@@H](COC(=O)CC(C)CC(=O)O)[C@H](CC(C)C)CN1CC2 (stereo partly drawn) [Compound 3-3, 5-{[(2R,3S,11bR)-9,10-dimethoxy-3-(2-methylpropyl)-1H,2H,3H,4H,6H,7H,11bH-pyrido[2,1-a]isoquinolin-2-yl]methoxy}-3-methyl-5-oxopentanoic acid]
18 | 10 to 500 | ++ | COc1cc2c(cc1OC)[C@H]1C[C@@H](COC(=O)C3CC3C(=O)O)[C@H](CC(C)C)CN1CC2 (stereo partly drawn) [Compound 3-4, 2-({[(2R,3S,11bR)-9,10-dimethoxy-3-(2-methylpropyl)-1H,2H,3H,4H,6H,7H,11bH-pyrido[2,1-a]isoquinolin-2-yl]methoxy}carbonyl)cyclopropane-1-carboxylic acid]
19 | 10 to 500 | + | COc1cc2c(cc1OC)[C@H]1CC(COC(=O)CC(C)(C)C(=O)O)[C@H](CC(C)C)CN1CC2 (stereo partly drawn) [Compound 3-7, 4-{[(3S,11bR)-9,10-dimethoxy-3-(2-methylpropyl)-1H,2H,3H,4H,6H,7H,11bH-pyrido[2,1-a]isoquinolin-2-yl]methoxy}-2,2-dimethyl-4-oxobutanoic acid]
20 | 10 to 500 | +++ | COc1cc2c(cc1OC)[C@H]1C[C@@H](COC(=O)CCCC(=O)O)[C@H](CC(C)C)CN1CC2 [Compound 3-8, 5-{[(2R,3S,11bR)-9,10-dimethoxy-3-(2-methylpropyl)-1H,2H,3H,4H,6H,7H,11 bH-pyrido[2,1 a]isoquinolin-2-yl]methoxy}-5-oxopentanoic acid]
21 | > 500 | +++ | COc1cc2c(cc1OC)[C@H]1C[C@@H](COC(=O)CCCCC(=O)O)[C@H](CC(C)C)CN1CC2 [Compound 3-10]
22 | > 500 | ++ | COc1cc2c(cc1OC)[C@H]1C[C@@H](COC(=O)C(C)(C)CC(=O)O)[C@H](CC(C)C)CN1CC2 [Compound 3-11]
23 | 10 to 500 | +++ | COc1cc2c(cc1OC)[C@H]1C[C@@H](COC(=O)CCC(C)(C)C(=O)O)[C@H](CC(C)C)CN1CC2 [Compound 3-12]
24 | 10 to 500 | ++ | COc1cc2c(cc1OC)[C@H]1C[C@@H](COC(=O)CCC(=O)O)[C@H](CC(C)C)CN1CC2 [Compound 3-13]
25 | < 10 | ++ | COc1cc2c(cc1OC)[C@H]1C[C@@H](COC(=O)CCCN)[C@H](CC(C)C)CN1CC2 [Compound 4-31, [(2R,3S,11bR)-9,10-dimethoxy-3-(2-methylpropyl)-1H,2H,3H,4H,6H,7H,11bH-pyrido[2,1-a]isoquinolin-2-yl]methyl 4-aminobutanoate]
26 | < 10 | + | COc1cc2c(cc1OC)[C@H]1C[C@@H](COC(=O)NCCC(=O)O)[C@H](CC(C)C)CN1CC2 [Compound 5-1, 3-[({[(2R,3S,11bR)-9,10-dimethoxy-3-(2-methylpropyl)-1H,2H,3H,4H,6H,7H,11bH-pyrido[2,1-a]isoquinolin-2-yl]methoxy}carbonyl)amino]propanoic acid]
27 | > 500 | + | COc1cc2c(cc1OC)[C@H]1C[C@@H](COC(=O)NCCCC(=O)O)[C@H](CC(C)C)CN1CC2 [Compound 5-3, 4-[({[(2R,3S,11bR)-9,10-dimethoxy-3-(2-methylpropyl)-1H,2H,3H,4H,6H,7H,11bH-pyrido[2,1-a]isoquinolin-2-yl]methoxy}carbonyl)amino]butanoic acid]
28 | 10 to 500 | + | COc1cc2c(cc1OC)[C@H]1C[C@@H](COC(=O)NC3(C(=O)O)CC3)[C@H](CC(C)C)CN1CC2 [Compound 5-5, 1-[({[(2R,3S,11bR)-9,10-dimethoxy-3-(2-methylpropyl)-1H,2H,3H,4H,6H,7H,11bH-pyrido[2,1-a]isoquinolin-2-yl]methoxy}carbonyl)amino]cyclopropane-1-carboxylic acid]
